The text below walks through data of patent EP0108147B1, “Use of a protoberberine alkaloid and composition containing same” (MAROKO, Peter R., priority 1982, dated 1983).

Holding throughout (type): in vivo
Series [1] relates to dogs. As to the kind of experiment: Myocardial oxygen consumption (MV02) and epicardial ST segment elevation experiments. As to conditions: for myocardial oxygen consumption and myocardial injury: dogs, varying dosages. An excerpt:
These changes were due to lower. myocardial oxygen consumption during the occlusion with berberine treatment. […] This is quite an advanageous therapeutic combination of properties which further distinguish the compounds used in the invention from the conventional drugs.

Series [2] deals with Mongrel dogs. As to the kind of experiment: Protocol HV: acute left ventricular failure by coronary microsphere embolization, closed chest. As to conditions: for overall result in the model of acute left ventricular failure / preload reduction: dog, in vivo. The protocol: - Experiments were carried out in 21 mongrel dogs of either sex with body weight between 19 and 39 kg. Anesthesia was induced with sodium pentobarbital, 25 mg/kg of body weight intravenously, and small supplementary doses were given as necessary to maintain a constant level of anesthesia. The dogs were placed in the left lateral position and ventilation was maintained through a cuffed endotracheal tube with a volume-controlled respirator (Harvard Apparatus Co., Millis, Massachusetts). Polyethylene cannuleae were placed into the jugular and femoral veins for intravenous infusions and drug adminstration. Electrocardiograms (lead aVF) were monitored continuously throughout the experiments.
A polyethylene cannula was introduced into the aorta through the left carotid artery to record arterial pressure. (Stantham P23 ID transducer, Stantham Instruments, Inc. Oxnard, California). A Millar microtip transducer catheter (Millar Instruments, Inc., Houston, Texas) was introduced into the left ventricular cavity through the femoral artery to measure left ventricular pressures. For adjustment of zero level, left ventricular pressure was also measured through the fluid-filled lumen in the Millar catheter (Statham P23 ID transducer). The maximal rate of rise of left ventricular pressure, LV dP/dt, was recorded by means of a differentiator. All these parameters were recorded continuously on a polygraph (Gould 2800, Gould Instruments, Cleveland, Ohio). Cardiac output was determined by the thermodilution technique, using a thermistor catheter in the pulmonary artery and calculated by a cardiac output computer (Elecath, Electro- catheter Corp., Rahway, New Jersey). The coefficient of variation for duplicate CO measurements was 5%. In addition to the parameters directly obtained, total peripheral vascular resistance was calculated from the ratio of […] and cardiac output. Stroke volume was calculated by dividing cardiac output by heart rate. Heparin (Invendex) (5000 IU) was administered to avoid clotting of the catheters.
To induce acute left vetricular failure, initially the left main coronary artery was catheterized with a Judkin coronary artery catheter (7F, ISCI Cardiology and Radiology Products, Billerica, Massachusetts) under fluoroscopic control. It was introduced through a femoral artery, and polystyrene microspheres (3M Company, St. Paul, Minnesota) with a diameter of 52. 5 ± 4.0 µm (mean±SD) were injected into the coronary artery. The microspheres were used in a concentration of 1 mg (i.e., 12,000) per ml saline. The first dose of microsphere solution was 0.5 mi/kg body weight, and all subsequent doses were 0.25 ml/kg body weight, administered every 5 minutes. Administration of microspheres was discontinued when LV/dP/dt had been reduced by 30% or more when measured 4 minutes after the last dose. All dogs received prophylactic antiarrhythmic treatment with intravenous lidocaine, 1.5 mg/kg body weight as a bolus 20 min after the end of embolization, followed by a continuous infusion of […].
Forty-five minutes were allowed to elapse to verify the stability of the preparation. If Lv dP/dt or left ventricular end diastolic pressure had changed by 20% or more between 30 and 45 minutes after embolization, the dogs were excluded from this study and not randomized. Forty-five minutes after the end of embolization, the dogs were assigned randomly to three groups: a) Berberine-treated group, 0.2 mg/kg/ min, dissolved in 60 ml of a solution of 5% dextrose in water administered in a constant infusion during 30 minutes; b) ouabain-treated group, 0.03 mg/kg was administered in 60 ml of a 5% solution of dextrose in water during 30 minutes; and c) Control group, administration of 60 ml of a 5% solution of dextrose in water during 30 min. […]

For series [3], the system named is closed-chest barbiturate anesthetized dogs. Put plainly: Endotoxic (LPS) shock in dogs. The protocol: Nineteen closed-chest barbiturate anesthetized with artificial respiration dogs were studied. All measurements were done by the technique described before LPS.
At this time, i.e., two hours and fifteen minutes after administration of LPS, 1000 ml of 5% of dextrose in water was administered to all dogs during the next forty-five minutes.
Urinary output during the second hour of shock (before berberine or placebo treatments) and the third hour of shock (when the dogs were treated with either berberine of placebo) were compared in each dog. This analysis is of crucial importance since it would indicate the restoration of effective organ perfusion which in the case of the kidneys results in urinary output.

In series [4] the test system is closed-chest dogs. As to the kind of experiment: Protocol TE: electrophysiologic properties in closed-chest dogs. As to conditions: for result when substituted in the electrophysiologic experiments: dog, in vivo. On the procedure:
Experiments were carried out to analyze the electrophysiologic properties of berberine (portocol TE). In this protocol closed-chest dogs were anesthetized with intravenous pentobarbital (30 mg/Kg). Electrode catheters were placed, under fluoroscopy, in the high right atrium, right venticle, and in the aorta near the non-coronary aortic cusp to record His bundle potential. In addition aortic pressure (Statham gauge) and surface ECG were obtained. All parameters were recorded on an Electronic for Medicine polygraph (Model DR 8), with a paper speed of 100 mm/sec. The recordings were obtained before berberine treatment and after five successive five minute infusions of 0.2 mg/Kg/min of berberine in each one of the dogs. At each one of these time intervals recordings were done with the "spontaneous" normal sinus rhythm and with atrial and ventricular extrastimuli were given during the normal sinus as well as during the pacing phases of the experiment to determine the refractory period of the artria, atrio-ventricular node and of the His-Purkinje system and ventricle. Moreover, sinus node recovery time was measured.

Where [5] appears, read: five successive five minute infusions of 0.2 mg/Kg/min.

As to `COc1ccc2cc3[n+](cc2c1OC)CCc1cc2c(cc1-3)OCO2` [berberine], the “epicardial ST segment elevations” value in series [1] (after coronary artery occlusion) was “did not change them”. Further, the “myocardial injury (epicardial ST segment elevations)” value in series [1] (consecutive occlusions, 0.2 mg/kg/min, vs control occlusion, pilot experiments) is given as “less myocardial injury”. In addition, the myocardial oxygen consumption result in series [1] (dogs with acute left ventricular failure, effect greater than that of ouabain) is listed as “significantly reduced”. The myocardial oxygen consumption result in series [1] (dogs without coronary artery occlusion) is given as “reduction in myocardial oxygen consumption”. In addition, the “mycardial oxygen consumption (MV02)” value in series [1] (non-failing heart, 0.02 mg/kg.min) is “did not change”. Besides, the “time to increase of LVdP/dt and reduction of left ventricular end diastolic pressure” value in series [2] (0.2 mg/kg/min infusion) was at most 2.5 min. Also, in series [2] (0.2 mg/kg/min, 30 min), the “Diastolic and mean arterial pressure” value was “significantly although only slightly reduced”; the Systolic arterial pressure entry was “not significantly changed”; the “decrease of total peripheral vascular resistance” value is 19 ± 2%; the “fall of heart rate” value came to 8 beats/min. Also, the “increase of LVdP/dt” value in series [2] (0.2 mg/kg/min, end of the 30-minute infusion) worked out at 28 ± 8%. The compound also showed a cardiac output in series [2] (after infusion, from 1.76 ± 0.15) of 1.93 ± 0.16 L/min. This compound returned a Stroke volume in series [2] (after infusion, from 14.6 ± 1.9) of 17.3 ± 2.7 mL. Further, the pulse pressure in series [2] (after infusion, from 28 ± 2) is reported as 33 ± 4 mmHg. The “Total peripheral vascular resistance” value in series [2] (after infusion, from 4915 ± 559) was 4004 ± 496 10^-5N·S·cm^-5. The “decrease of left venticular end diastolic pressure” value in series [2] (end of the 30-minute infusion) was 38 ± 4%. Moreover, in series [2] (end of the 30-minute infusion, from 13.3 ± 0.8), the “Left venticular end diastolic pressure” value is reported as 8.1 ± 0.5 mmHg. In addition, the LVdP/dt in series [2] (end of the 30-minute infusion, from 1572 ±80) turned out to be 2010 ± 95 mmHg/s. For the same compound, the “systemic systolic arterial pressure” value in series [3] (after 1000 ml of 5% dextrose in water, controls 107±5, before shock 136±10) was determined as 127±6 mmHg. In addition, the “dP/dt higher than before shock” value in series [3] (after dextrose) is recorded as “approximately 50%”. In addition, in series [3] (after dextrose, before shock 2565±166), the peak left ventricular dP/dt was found to be 3740 ± 305 mmHg/s. Moreover, the “cardiac arrhythmias or conduction defect” value in series [3] (dog, in vivo) is “No cardiac arrhythmias or conduction defect was observed”. The “increase of urinary output from the second (pre-treatment) to the third (treatment) hour” value in series [3] (first statement, control -51.7±32.9) is 30.5 ± 32.9 mL/h. In addition, in series [3] (second statement), the “increase of urinary output from the second (pre-treatment) to the third (treatment) hour” value is on record as 30.5±14.3 mi. Besides, the “minimal dose that results in an elevation of systemic systolic arterial pressure by at least 5 mmHg” value in series [3] (two hours after LPS 5 mg) was found to be 0.053 ± 0.008 mg/kg/min. Further, the “peak left ventricular dP/dt” value in series [3] (within fifteen minutes of treatment, control 1050±145) amounted to 2062±204 mmHg/s. Besides, the “pulse pressure (systolic minus diastolic pressures)” value in series [3] (within fifteen minutes of treatment, from 24±2) was determined as 32±2 mmHg. Further, the systolic pressure in series [3] (within fifteen minutes of treatment, placebo 50±6) is given as 66±4 mmHg. In addition, in series [4] (setting [5]), the “A-H, H-V and QRS intervals” value is “did not change”; the Sinus node recovery result was “did not change”; the artrial refractory period entry was “did not change”; the “change of QTc” value came out at 13%. In addition, in series [4] (setting [5]), the “decrease of heart rate” value stood at 8% and the “increase of ventricular effective refractory period” value turned out to be 11%.
`COc1ccc2cc3[n+](cc2c1O)CCc1cc2c(cc1-3)OCO2` [berberrubine]: the “myocardial oxygen consumption and myocardial injury” value in series [1] was “reduction on myocardial oxygen consumption and less myocardial injury than the control”. Also, in series [2], the “overall result in the model of acute left ventricular failure” value is given as “perform in an equivalent manner” and the preload reduction entry is listed as “comparable preload reduction”. The “control of endotoxic shock caused by LPS” value in series [3] (dog, in vivo) is “comparable results”. For the same compound, the “result when substituted in the electrophysiologic experiments” value in series [4] is “likewise”.
`COc1cc2c(cc1O)C[C@H]1c3cc(O)c(OC)cc3CCN1C2` [coreximine]: the “myocardial oxygen consumption and myocardial injury” value in series [1] is “reduction on myocardial oxygen consumption and less myocardial injury than the control”. Besides, in series [2], the “overall result in the model of acute left ventricular failure” value is “perform in an equivalent manner” and the preload reduction entry is recorded as “comparable preload reduction”. For the same compound, the “control of endotoxic shock caused by LPS” value in series [3] (dog, in vivo) was “comparable results”. The “result when substituted in the electrophysiologic experiments” value in series [4] is on record as “comparable results are shown”.
